In data set [1] the target is T1, Human α6β4 nAChR (Homo sapiens, UniProt P30926+Q15825).
T1 construct: expressed in transfected cells
Kind of data set: FLIPR assay, agonist-evoked calcium flux in recombinant cells co-transfected with BARP, SULT2B1 and CHAT. Type of data set: cell-based. As for the experimental part: In one embodiment, FLIPR assay is used to identify agonists of α6β4 nAChR mediated calcium flux. In this assay, the recombinant cells are incubated with a calcium sensitive dye (such as Ca5), exposed to a test compound, and calcium flux is imaged by FLIPR^TETRA.
• Prepare a cell suspension of 1×10^6 cells per mL by centrifuging cells and resuspending in fresh, prewarmed media; • With 1900 mL of cells shaking, prepare the following transfection mix in 50 ml of OptiPro SFM Medium; • Add 2.5 mL FreeStyle MAX reagent to 47.5 mL of OptiPro SFM to an empty 50 ml tube; • In a second 50 ml tube, add 2.5 mg total DNA (α6, β4, BARP, CHAT, and SULT2B1 at a ratio of 1:1:2:1:1) in OptiPro SFM to a final volume of 50 ml and vortex gently; • Transfer the diluted DNA to the FreeStyle MAX reagent and gently mix the solution immediately and incubate for 10 minutes at room temperature; • Transfer the 100 ml FreeStyle MAX/DNA transfection mix to the cells and homogenize the culture; • Incubate 1 hour at 37° C. with 8% CO2; • Pour cells into sterile 500 mL tubes; • Spin at 1000 rpm for 7 minutes; • Remove supernatant; and • Resuspend Cells in Plating Media.
• Ethanol vials to decontaminate; • Pour cells into 50 ml conical tube; • Slowly add 10 ml warmed plating media drop wise; • Pipet up and down gently a few times to dislodge pellet if it exists; • Spin at 1000 RPM for 7 min, aspirate supernatant, and resuspend in 25 ml plating; • Seed 35,000 cells/well in 35 μL (1.0×10^6 cells/mL); and • Incubate plates for 24 hours at 37° C. Then transfer the plate to 30° C. with 5% CO2 in a humidified atmosphere for 24-48 hours.
• Wash plate with plate washer (4 washes×100 μL/wash) using compound dilution buffer, leaving 25 µL in each well; • Add 25 μL of 2× Ca6 dye to each well; • Incubate at room temperature for 1 hour; • Wash plate with plate washer (4 washes×100 μL/wash) using compound dilution buffer, leaving 50 µL in each well; • Transfer plates to FLIPR for compound addition. Concentration Response Curves for Agonist-Evoked Activity of α6β4 nAChR
Human α6 and β4 subunits of α6β4 nAChR were co-transfected with BARP, SULT2B1, and CHAT in HEK293T cells and incubated at 30° C. for 24-48 hours. The transfected cells were incubated for one hour at room temperature with Ca5 dye followed by stimulating with agonists for 3.5 minutes. Agonist-evoked calcium flux was measured using a FLIPR^TETRA imager and final FLIPR signals were averaged and plotted (FIG. 1).
Background: A change in cytosolic calcium serves as a functional read-out for many receptors and channels.

The test system of data set [2] is patients with diabetic peripheral neuropathic pain. Particulars: phase 2 clinical trial; cited from earlier work.
The target in data set [3] is T1, Human α6β4 nAChR. Description: FLIPR assay, antagonist on nicotine-evoked calcium flux (two-addition protocol). As to conditions: HEK293T cells, 1st addition test compound 3 min, 2nd addition nicotine (EC80, 15 μM) 3.5 min, FIG. 2. The format is cell-based. Here is the method: In one embodiment, FLIPR assay is used to identify antagonists of nicotine-evoked α6β4 nAChR mediated calcium flux. In this assay, the recombinant cells are incubated with a calcium sensitive dye (such as Ca5). Using a double addition protocol, the recombinant cells are exposed to test compounds during the first duration, and to nicotine (e.g., at EC80 (15 μm)) during the second duration. Thereafter, the calcium flux is imaged by FLIPR^TETRA. […]
Human α6 and β4 subunits of α6β4 nAChR were co-transfected with BARP, SULT2B1, and CHAT in HEK293T cells and incubated at 30° C. for 24-48 hour. […] Nicotine-evoked calcium flux was then measured using a FLIPR^TETRA imager and the final FLIPR signals were averaged and plotted (FIG. 2).

Another data set relates to α6 knockout mice. As to conditions: following both inflammatory and neuropathic injuries; cited from earlier work.
Setting [4] is: HEK293T cells, incubated at 30° C. for 24-48 hours, Ca5 dye, agonist stimulation 3.5 minutes, FIG. 1.

This is an account of results in US20250277784A1, “EXPRESSION SYSTEMS FOR THE ALPHA6BETA4 NICOTINIC ACETYLCHOLINE RECEPTOR AND METHODS OF USE THEREOF” (Janssen Pharmaceutica NV, priority 2021, published 2025).

Read-outs that look alike come from different tables or passages of the source.

T1 sequence (Q15825 26-494): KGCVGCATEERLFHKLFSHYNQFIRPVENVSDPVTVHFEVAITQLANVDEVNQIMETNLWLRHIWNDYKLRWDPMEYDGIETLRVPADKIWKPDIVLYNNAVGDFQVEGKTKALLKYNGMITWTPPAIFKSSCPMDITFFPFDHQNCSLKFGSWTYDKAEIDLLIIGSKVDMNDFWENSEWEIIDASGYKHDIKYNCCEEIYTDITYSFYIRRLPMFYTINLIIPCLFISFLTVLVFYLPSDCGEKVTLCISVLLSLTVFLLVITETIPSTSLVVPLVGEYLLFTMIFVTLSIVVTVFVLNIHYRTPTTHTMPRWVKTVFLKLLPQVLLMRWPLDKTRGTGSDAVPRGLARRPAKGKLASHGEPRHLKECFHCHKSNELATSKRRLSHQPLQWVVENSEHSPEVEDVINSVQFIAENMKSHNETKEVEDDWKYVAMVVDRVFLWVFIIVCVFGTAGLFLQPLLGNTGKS
T1 sequence (P30926 22-498): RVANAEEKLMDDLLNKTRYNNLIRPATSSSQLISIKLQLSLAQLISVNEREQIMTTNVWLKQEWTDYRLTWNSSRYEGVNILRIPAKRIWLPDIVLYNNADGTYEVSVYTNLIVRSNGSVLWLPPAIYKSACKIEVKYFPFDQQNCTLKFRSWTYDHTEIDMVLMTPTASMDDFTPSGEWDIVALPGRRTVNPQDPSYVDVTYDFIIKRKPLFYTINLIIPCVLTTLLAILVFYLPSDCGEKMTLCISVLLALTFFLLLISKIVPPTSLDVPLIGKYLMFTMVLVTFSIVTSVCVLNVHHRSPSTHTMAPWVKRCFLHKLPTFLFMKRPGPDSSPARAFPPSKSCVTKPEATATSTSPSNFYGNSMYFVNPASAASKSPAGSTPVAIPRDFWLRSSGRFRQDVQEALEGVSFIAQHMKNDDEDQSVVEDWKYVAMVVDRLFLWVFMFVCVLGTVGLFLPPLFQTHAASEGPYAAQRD

Consider `c1cncc(OC[C@@H]2CCN2)c1` [A-85380], for which the “Agonist-evoked calcium flux (FLIPR signal)” value (“Agonist-evoked calcium flux” for short) on Human α6β4 nAChR [1] (setting [4]) is “enhances calcium flux in a dose-dependent manner”.
Consider `Clc1ccc(OC[C@H]2CCN2)cn1` [ABT-594], for which, at Human α6β4 nAChR [1] (setting [4]), the “Agonist-evoked calcium flux” value is on record as “enhances calcium flux in a dose-dependent manner”. Moreover, in data set [2], the “Efficacy for diabetic neuropathy” value was “robust efficacy” and the Side effects result is “unacceptable side effects”.
In the case of `Clc1ccc(C2CC3CCC2N3)cn1` (stereo not drawn) [epibatidine], the “Agonist-evoked calcium flux” value at Human α6β4 nAChR [1] (setting [4]) is given as “enhances calcium flux in a dose-dependent manner”.
In the case of `CCN1C[C@]2(COC(=O)c3ccccc3N3C(=O)C[C@H](C)C3=O)CC[C@H](OC)[C@@]34[C@@H]5C[C@H]6[C@H](OC)[C@@H]5[C@](O)(C[C@@H]6OC)[C@@](O)([C@@H](OC)[C@H]23)[C@@H]14` [MLA, methyllycaconitine], the “Nicotine-evoked calcium flux (FLIPR signal)” value at Human α6β4 nAChR [3] is listed as “decreases the nicotine-evoked calcium flux in a dose-dependent manner”.
As for `c1cnc2cc3c(cc2n1)[C@@H]1CNC[C@H]3C1` [varenicline], on Human α6β4 nAChR [1] (setting [4]), the “Agonist-evoked calcium flux” value is given as “enhances calcium flux in a dose-dependent manner”.
On to `O=c1cccc2n1C[C@@H]1CNC[C@H]2C1` [cytisine], for which, on Human α6β4 nAChR [1], the “Agonist-evoked calcium flux” value is listed as “enhances calcium flux in a dose-dependent manner”.
Consider `CN1CCCC1c1cccnc1` (stereo not drawn) [nicotine], for which, on Human α6β4 nAChR [1], the “Agonist-evoked calcium flux” value is on record as “enhances calcium flux in a dose-dependent manner” and the “Nicotine EC80” value turned out to be 15 µM. For the same molecule, the Analgesic effects result in the data set with α6 knockout mice is reported as “absent”.
With `Clc1cc(N2C[C@@H]3CN[C@@H]3C2)cnc1Cl` [ABT-894], the “Agonist-evoked calcium flux” value on Human α6β4 nAChR [1] (setting [4]) is given as “enhances calcium flux in a dose-dependent manner”.
